Test results: patent publication US20100022018A1 (priority 2006, published 2010)
Like-named read-outs stand apart in the source and are kept apart here.

Columns and labels:
Assay type in all cases: biochemical
[1] = molecular target: T1, papain inactivated by methyl methanethiolsulfonate (Carica papaya, UniProt P00784)
T1 construct: purchased Sigma Chemical Company (St. Louis, Mo.)
T1 sequence (P00784 134-345): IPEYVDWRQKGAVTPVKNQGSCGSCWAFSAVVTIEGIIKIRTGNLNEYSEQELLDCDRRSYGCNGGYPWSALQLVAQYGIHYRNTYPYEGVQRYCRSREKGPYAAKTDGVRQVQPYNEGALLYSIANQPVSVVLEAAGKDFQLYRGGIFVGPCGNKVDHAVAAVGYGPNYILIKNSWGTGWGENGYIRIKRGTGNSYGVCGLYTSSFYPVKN

papain [2] = molecular target: T2, papain (Carica papaya, UniProt P00784); assay: Background activity of papain inactivated by disulfide-forming reagents; settings: compared with papain inactivated with methyl methanethiolsulfonate
T2 construct: purchased Sigma Chemical Company (St. Louis, Mo.)
T2 sequence (P00784 134-345): T1 sequence (P00784 134-345)

papain [3] = molecular target: T2, papain; assay: Inactivation of activated papain by metal salts; settings: metal salt added to equal 1.1× the molar amount of papain
Source text: Papain was activated as described above, and the DTT was removed by gel filtration using G-25. Papain was then inactivated by adding a slight molar excess of a mono, di, tri, or tetra valent metal. […] The inhibition by the metals was essentially instantaneous.
This papain was used to assay H2S as follows.

[4] = molecular target: T3, papain inactivated by 4,4′-dithiobis-pyridine (Carica papaya, UniProt P00784)
T3 construct: purchased Sigma Chemical Company (St. Louis, Mo.)
T3 sequence (P00784 134-345): T1 sequence (P00784 134-345)

[5] = molecular target: T4, papain inactivated by 2,2′-dithiobis-pyridine (Carica papaya, UniProt P00784)
T4 construct: purchased Sigma Chemical Company (St. Louis, Mo.)
T4 sequence (P00784 134-345): T1 sequence (P00784 134-345)

[6] = 50 pmoles of DTT added, turnover of 600/min
[7] = compared with papain inhibited by methyl methanethiolsulfonate

`O[C@H](CS)[C@H](O)CS` (racemic) [DTT, dithiothreitol] was tested, and the “rate of appearance of p-nitroanaline” value [1] was 0.00026 M/min, the “amount of active papain in 200 μl” value [1, 6] was 72 pmol and the “concentration of active papain needed to generate product at this rate” value [1, 6] was 360 nM. The “Δ A410/min” value ([1]; 10 picomoles of DTT added, 1 minute incubation at 25° C., Tris pH 8.0) was 0.52 min⁻¹, the “Δ A410/min” value ([1]; 20 picomoles of DTT added, 1 minute incubation at 25° C., Tris pH 8.0) was 0.96 min⁻¹ and the “Δ A410/min” value ([1]; 50 picomoles of DTT added, 1 minute incubation at 25° C., Tris pH 8.0) was 1.9 min⁻¹.

In the case of `c1ccc(SSc2ccccn2)nc1` [2,2′-dithiobis-pyridine], the “background level of activity exhibited by the inactivated papain” value (papain [2]) is reported as “higher than papain inactivated with methyl methanethiolsulfonate”.

For `c1cc(SSc2ccncc2)ccn1` [4,4′-dithiobis-pyridine], the “background level of activity exhibited by the inactivated papain” value (papain [2]) was “higher than papain inactivated with methyl methanethiolsulfonate”.

In the case of `O=[N+]([O-])[O-].[Ag+]` [AgNO3], the “inhibition of the activity of the activated papain” value (papain [3]) is reported as greater than 99.5%.

For `N[C@@H](CS)C(=O)O` [Cysteine, cysteine], the “Δ A410/min” value ([1]; 20 picomoles added, 1 min incubation) was 0.45 min⁻¹, the “Δ A410/min” value ([1]; 50 picomoles added, 1 min incubation) was 1.1 min⁻¹ and the “molecules of papain activated for each molecule of activator” value ([1]; disulfide linkage inactivated papain) was less than 1. For the same molecule, the “efficiency of reactivation of inactivated papain” value (“efficiency” for short) [4, 7] was “somewhat more efficient” and the “efficiency” value [5, 7] was “somewhat more efficient”.

For `[Cl][Hg][Cl]` [HgCl2], the “inhibition of the activity of the activated papain” value (papain [3]) was greater than 99.9%.

sodium sulfide was tested, and the “molecules of activator for every one molecule of papain activated” value [1] was roughly 5, the “efficiency” value [4] was “somewhat more efficient” and the “efficiency” value [5] was “somewhat more efficient”.
